Columns and labels:
Assay in all cases: cells
MMAC-SF = assay type: functional, cell-based, Homo sapiens; conditions: Homo sapiens, MMAC-SF;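 also: growth inhibition of human MMAC-SF cells, read out with a cell viability assay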
Description: SANGER: Inhibition of human MMAC-SF cell growth in a cell viability assay.

RPMI-2650 = assay type: functional, cell-based, Homo sapiens; conditions: Homo sapiens, RPMI-2650
Description: SANGER: Inhibition of human RPMI-2650 cell growth in a cell viability assay.

UMC-11 = assay type: functional, cell-based, Homo sapiens; conditions: Homo sapiens, UMC-11;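 also: growth inhibition of UMC-11 cells, read out with a cell viability assay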
Description: SANGER: Inhibition of human UMC-11 cell growth in a cell viability assay.

LXF-289 cell line = assay type: functional, cell-based, Homo sapiens; conditions: Homo sapiens, LXF-289
Description: SANGER: Inhibition of human LXF-289 cell growth in a cell viability assay.

NCI-H2126 = assay type: functional, cell-based, Homo sapiens; conditions: Homo sapiens, NCI-H2126;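 also: growth inhibition of the cancer cell line, determined with a cell viability readout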
Description: SANGER: Inhibition of human NCI-H2126 cell growth in a cell viability assay.

SW872 = assay type: functional, cell-based, Homo sapiens; conditions: Homo sapiens, SW872;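 also: growth inhibition of SW872 cells, read out by a viability assay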
Description: SANGER: Inhibition of human SW872 cell growth in a cell viability assay.

S-117 = assay type: functional, cell-based, Homo sapiens; conditions: Homo sapiens, S-117
Description: SANGER: Inhibition of human S-117 cell growth in a cell viability assay.

CWR22R = assay type: functional, cell-based, Homo sapiens; conditions: Homo sapiens, 22Rv1;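 also: growth inhibition of 22Rv1 cells, read out with a cell viability assay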
Description: SANGER: Inhibition of human 22RV1 cell growth in a cell viability assay.

SNU1 = assay type: functional, cell-based; conditions: Homo sapiens;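 also: growth inhibition of human NCI-SNU-1 cells, measured with a cell viability assay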
Description: SANGER: Inhibition of human NCI-SNU-1 cell growth in a cell viability assay.

A2780 = assay type: functional, cell-based, Homo sapiens; conditions: Homo sapiens, A2780;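 also: growth inhibition of A2780 cells, read out with a cell viability assay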
Description: SANGER: Inhibition of human A2780 cell growth in a cell viability assay.

KP-4 = assay type: functional, cell-based, Homo sapiens; conditions: Homo sapiens, KP-4; read-out: IC50;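 also: human KP-4 cells, with growth inhibition read out through a cell viability assay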
Description: SANGER: Inhibition of human KP-4 cell growth in a cell viability assay.

HEC-1 = assay type: functional, cell-based, Homo sapiens; conditions: Homo sapiens, HEC-1;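 also: growth inhibition of the cell line, read out with a cell viability assay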
Description: SANGER: Inhibition of human HEC-1 cell growth in a cell viability assay.

HT-1376 = assay type: functional, cell-based, Homo sapiens; conditions: Homo sapiens, HT-1376
Description: SANGER: Inhibition of human HT-1376 cell growth in a cell viability assay.

MDA-MB-415 = assay type: functional, cell-based; conditions: Homo sapiens
CAL-51 = assay type: functional, cell-based, Homo sapiens; conditions: Homo sapiens, CAL-51;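 also: human CAL-51 cell line, growth inhibition read out via a cell viability assay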
Description: SANGER: Inhibition of human CAL-51 cell growth in a cell viability assay.

IGROV-1 = assay type: functional, cell-based, Homo sapiens; conditions: Homo sapiens, IGROV-1;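 also: reduction of IGROV-1 cell growth, read out with a viability assay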
Description: SANGER: Inhibition of human IGROV-1 cell growth in a cell viability assay.

NCI-H650 = assay type: functional, cell-based, Homo sapiens; conditions: Homo sapiens, NCI-H650;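 also: growth inhibition of NCI-H650 cells, read out by a viability assay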
Description: SANGER: Inhibition of human NCI-H650 cell growth in a cell viability assay.

D-502MG = assay type: functional, cell-based, Homo sapiens; conditions: Homo sapiens, D-502MG
Description: SANGER: Inhibition of human D-502MG cell growth in a cell viability assay.

CP50-MEL-B = assay type: functional, cell-based, Homo sapiens; conditions: Homo sapiens, CP50-MEL-B;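 also: growth inhibition of the human cell line, measured with a cell viability read-out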
Description: SANGER: Inhibition of human CP50-MEL-B cell growth in a cell viability assay.

HCC1395 = assay type: functional, cell-based, Homo sapiens; conditions: Homo sapiens, HCC1395;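 also: growth inhibition of HCC1395 cells, read out by a cell viability assay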
Description: SANGER: Inhibition of human HCC1395 cell growth in a cell viability assay.

SK-N-DZ = assay type: functional, cell-based, Homo sapiens; conditions: Homo sapiens, SK-N-DZ;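 also: growth inhibition of the cancer cell line, read out through a viability assay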
Description: SANGER: Inhibition of human SK-N-DZ cell growth in a cell viability assay.

BB30-HNC = assay type: functional, cell-based, Homo sapiens; conditions: Homo sapiens, BB30-HNC;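 also: growth inhibition of the cultured cell line, read out by a cell viability assay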
Description: SANGER: Inhibition of human BB30-HNC cell growth in a cell viability assay.

Ramos-2G6-4C10 = assay type: functional, cell-based; conditions: Homo sapiens;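 also: growth inhibition of the cell line, measured by a cell viability read-out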
Description: SANGER: Inhibition of human Ramos-2G6-4C10 cell growth in a cell viability assay.

BXPC-3 = assay type: functional, cell-based, Homo sapiens; conditions: Homo sapiens, BXPC-3;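 also: growth inhibition of human BxPC-3 cells, read out by a cell viability assay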
Description: SANGER: Inhibition of human BxPC-3 cell growth in a cell viability assay.

C-33-A = assay type: functional, cell-based, Homo sapiens; conditions: Homo sapiens, C-33-A;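 also: cell viability assay measuring growth inhibition of C-33-A cells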
Description: SANGER: Inhibition of human C-33-A cell growth in a cell viability assay.

NCI-H2087 = assay type: functional, cell-based, Homo sapiens; conditions: Homo sapiens, NCI-H2087;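 also: growth inhibition determined with a cell viability readout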
Description: SANGER: Inhibition of human NCI-H2087 cell growth in a cell viability assay.

HO-1-N-1 = assay type: functional, cell-based, Homo sapiens; conditions: Homo sapiens, HO-1-N-1;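 also: growth inhibition of human HO-1-N-1 cells, read out with a cell viability assay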
Description: SANGER: Inhibition of human HO-1-N-1 cell growth in a cell viability assay.

K562 = assay type: functional, cell-based; conditions: Homo sapiens
Description: SANGER: Inhibition of human K-562 cell growth in a cell viability assay.

TGBC24TKB = assay type: functional, cell-based, Homo sapiens; conditions: Homo sapiens, TGBC24TKB;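 also: growth inhibition of human TGBC24TKB cells, read out with a cell viability assay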
Description: SANGER: Inhibition of human TGBC24TKB cell growth in a cell viability assay.

NCI-H2452 = assay type: functional, cell-based, Homo sapiens; conditions: Homo sapiens, NCI-H2452;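 also: growth inhibition of NCI-H2452 cells, read out with a cell viability assay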
Description: SANGER: Inhibition of human NCI-H2452 cell growth in a cell viability assay.

C3A = assay type: functional, cell-based, Homo sapiens; conditions: Homo sapiens, C3A;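 also: growth inhibition of C3A human cells, quantified with a cell viability readout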
Description: SANGER: Inhibition of human C3A cell growth in a cell viability assay.

EM-2 = assay type: functional, cell-based; conditions: Homo sapiens;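 also: growth inhibition of EM-2 cells, read out with a cell viability assay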
Description: SANGER: Inhibition of human EM-2 cell growth in a cell viability assay.

GAMG = assay type: functional, cell-based, Homo sapiens; conditions: Homo sapiens, GAMG;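 also: cell growth inhibition measured by a viability assay in the GAMG human cell line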
Description: SANGER: Inhibition of human GAMG cell growth in a cell viability assay.

OCI-AML2 = assay type: functional, cell-based; conditions: Homo sapiens;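 also: growth inhibition of OCI-AML2 cells, read out with a cell viability assay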
Description: SANGER: Inhibition of human OCI-AML2 cell growth in a cell viability assay.

A3-KAW = assay type: functional, cell-based; conditions: Homo sapiens;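 also: growth inhibition of human A3-KAW cells, read out with a cell viability assay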
Description: SANGER: Inhibition of human A3-KAW cell growth in a cell viability assay.

L-363 = assay type: functional, cell-based; conditions: Homo sapiens
Description: SANGER: Inhibition of human L-363 cell growth in a cell viability assay.

KNS-42 = assay type: functional, cell-based, Homo sapiens; conditions: Homo sapiens, KNS-42;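 also: growth inhibition of KNS-42 cells, read out with a cell viability assay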
Description: SANGER: Inhibition of human KNS-42 cell growth in a cell viability assay.

HOS = assay type: functional, cell-based, Homo sapiens; conditions: Homo sapiens, HOS;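 also: growth inhibition of human HOS cells, read out with a cell viability assay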
Description: SANGER: Inhibition of human HOS cell growth in a cell viability assay.

DMS-79 = assay type: functional, cell-based; conditions: Homo sapiens;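 also: growth inhibition measured with a cell viability assay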
Description: SANGER: Inhibition of human DMS-79 cell growth in a cell viability assay.

DJM-1 = assay type: functional, cell-based, Homo sapiens; conditions: Homo sapiens, DJM-1;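 also: growth inhibition of human DJM-1 cells, read out by a cell viability assay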
Description: SANGER: Inhibition of human DJM-1 cell growth in a cell viability assay.

J-RT3-T3-5 = assay type: functional, cell-based; conditions: Homo sapiens;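 also: cell viability assay measuring growth inhibition of human J-RT3-T3-5 cells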
Description: SANGER: Inhibition of human J-RT3-T3-5 cell growth in a cell viability assay.

AU565 = assay type: functional, cell-based, Homo sapiens; conditions: Homo sapiens, AU565;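 also: cell viability assay measuring growth inhibition of human AU565 cells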
Description: SANGER: Inhibition of human AU565 cell growth in a cell viability assay.

SK-N-AS = assay type: functional, cell-based, Homo sapiens; conditions: Homo sapiens, SK-N-AS;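 also: growth inhibition of human SK-N-AS cells, measured with a cell viability assay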
Description: SANGER: Inhibition of human SK-N-AS cell growth in a cell viability assay.

COLO-684 = assay type: functional, cell-based; conditions: Homo sapiens
Description: SANGER: Inhibition of human COLO-684 cell growth in a cell viability assay.

MV4-11 = assay type: functional, cell-based, MV-4-11; conditions: Homo sapiens;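 also: cell viability readout measuring growth inhibition of human MV-4-11 cells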
Description: SANGER: Inhibition of human MV-4-11 cell growth in a cell viability assay.

SK-MEL-24 = assay type: functional, cell-based; conditions: Homo sapiens;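 also: growth inhibition read out by a cell viability assay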
Description: SANGER: Inhibition of human SK-MEL-24 cell growth in a cell viability assay.

SW1463 = assay type: functional, cell-based, Homo sapiens; conditions: Homo sapiens, SW1463;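 also: growth inhibition of SW1463 cells, determined with a cell viability assay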
Description: SANGER: Inhibition of human SW1463 cell growth in a cell viability assay.

OCUB-M = assay type: functional, cell-based, Homo sapiens; conditions: Homo sapiens, OCUB-M;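 also: growth inhibition of the cancer cell line, read out through a cell viability assay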
Description: SANGER: Inhibition of human OCUB-M cell growth in a cell viability assay.

KYSE-70 cell line = assay type: functional, cell-based, Homo sapiens; conditions: Homo sapiens, KYSE-70;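 also: cell viability assay read-out, with IC50 expressing suppression of KYSE-70 cell growth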
Description: SANGER: Inhibition of human KYSE-70 cell growth in a cell viability assay.

DSH1 = assay type: functional, cell-based, Homo sapiens; conditions: Homo sapiens, DSH1;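 also: growth inhibition of human DSH1 cells, measured with a cell viability readout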
Description: SANGER: Inhibition of human DSH1 cell growth in a cell viability assay.

RCM-1 = assay type: functional, cell-based, Homo sapiens; conditions: Homo sapiens, RCM-1;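 also: growth inhibition of the RCM-1 line, determined with a cell viability readout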
Description: SANGER: Inhibition of human RCM-1 cell growth in a cell viability assay.

Cc1cnc(-c2cnc(NCCNc3ccc(C#N)cn3)nc2-c2ccc(Cl)cc2Cl)[nH]1 [LADUVIGLUSIB]
IC50 (MMAC-SF): > 2560 nM | IC50 (RPMI-2650): > 2560 nM | IC50 (UMC-11): > 2560 nM | IC50 (LXF-289 cell line): > 2560 nM | IC50 (NCI-H2126): > 2560 nM | IC50 (SW872): > 2560 nM | IC50 (S-117): 921 nM | IC50 (CWR22R): > 2560 nM | IC50 (SNU1): > 2560 nM | IC50 (A2780): > 2560 nM | IC50 (KP-4): > 2560 nM | IC50 (HEC-1): > 2560 nM | IC50 (HT-1376): > 2560 nM | IC50 (MDA-MB-415): > 2560 nM | IC50 (CAL-51): > 2560 nM | IC50 (IGROV-1): > 2560 nM | IC50 (NCI-H650): > 2560 nM | IC50 (D-502MG): > 2560 nM | IC50 (CP50-MEL-B): > 2560 nM | IC50 (HCC1395): 1780 nM | IC50 (SK-N-DZ): > 2560 nM | IC50 (BB30-HNC): > 2560 nM | IC50 (Ramos-2G6-4C10): > 2560 nM | IC50 (BXPC-3): > 2560 nM | IC50 (C-33-A): > 2560 nM | IC50 (NCI-H2087): > 2560 nM | IC50 (HO-1-N-1): > 2560 nM | IC50 (K562): > 2560 nM | IC50 (TGBC24TKB): > 2560 nM | IC50 (NCI-H2452): > 2560 nM | IC50 (C3A): > 2560 nM | IC50 (EM-2): > 2560 nM | IC50 (GAMG): > 2560 nM | IC50 (OCI-AML2): > 2560 nM | IC50 (A3-KAW): > 2560 nM | IC50 (L-363): > 2560 nM | IC50 (KNS-42): > 2560 nM | IC50 (HOS): > 2560 nM | IC50 (DMS-79): > 2560 nM | IC50 (DJM-1): > 2560 nM | IC50 (J-RT3-T3-5): > 2560 nM | IC50 (AU565): > 2560 nM | IC50 (SK-N-AS): > 2560 nM | IC50 (COLO-684): > 2560 nM | IC50 (MV4-11): > 2560 nM | IC50 (SK-MEL-24): > 2560 nM | IC50 (SW1463): > 2560 nM | IC50 (OCUB-M): > 2560 nM | IC50 (KYSE-70 cell line): > 2560 nM | IC50 (DSH1): > 2560 nM | IC50 (RCM-1): > 2560 nM

C[C@]1(O)C[C@@H](c2nc(-c3ccc4ccc(-c5ccccc5)nc4c3)c3c(N)nccn32)C1 [LINSITINIB]
IC50 (MMAC-SF): > 2560 nM | IC50 (RPMI-2650): > 2560 nM | IC50 (UMC-11): > 2560 nM | IC50 (LXF-289 cell line): > 2560 nM | IC50 (NCI-H2126): > 2560 nM | IC50 (SW872): > 2560 nM | IC50 (S-117): > 2560 nM | IC50 (CWR22R): > 2560 nM | IC50 (SNU1): > 2560 nM | IC50 (A2780): > 2560 nM | IC50 (KP-4): > 2560 nM | IC50 (HEC-1): > 2560 nM | IC50 (HT-1376): > 2560 nM | IC50 (MDA-MB-415): > 2560 nM | IC50 (CAL-51): > 2560 nM | IC50 (IGROV-1): 1150 nM | IC50 (NCI-H650): 214 nM | IC50 (D-502MG): > 2560 nM | IC50 (CP50-MEL-B): > 2560 nM | IC50 (HCC1395): > 2560 nM | IC50 (SK-N-DZ): 237 nM | IC50 (BB30-HNC): > 2560 nM | IC50 (Ramos-2G6-4C10): > 2560 nM | IC50 (BXPC-3): > 2560 nM | IC50 (C-33-A): > 2560 nM | IC50 (NCI-H2087): > 2560 nM | IC50 (HO-1-N-1): > 2560 nM | IC50 (K562): > 2560 nM | IC50 (TGBC24TKB): 1500 nM | IC50 (NCI-H2452): > 2560 nM | IC50 (C3A): > 2560 nM | IC50 (EM-2): > 2560 nM | IC50 (GAMG): > 2560 nM | IC50 (OCI-AML2): > 2560 nM | IC50 (A3-KAW): > 2560 nM | IC50 (L-363): 1340 nM | IC50 (KNS-42): > 2560 nM | IC50 (HOS): > 2560 nM | IC50 (DMS-79): > 2560 nM | IC50 (DJM-1): > 2560 nM | IC50 (J-RT3-T3-5): > 2560 nM | IC50 (AU565): > 2560 nM | IC50 (SK-N-AS): > 2560 nM | IC50 (COLO-684): > 2560 nM | IC50 (MV4-11): > 2560 nM | IC50 (SK-MEL-24): > 2560 nM | IC50 (SW1463): > 2560 nM | IC50 (OCUB-M): > 2560 nM | IC50 (KYSE-70 cell line): > 2560 nM | IC50 (DSH1): > 2560 nM | IC50 (RCM-1): > 2560 nM

Reference: ChEMBL document CHEMBL1201861, “Genomics of Drug Sensitity in Cancer screening data, Wellcome Trust Sanger Institute”
